Source: US20060287528A1, “Novel crystalline forms of a phosphoric acid salt of a dipeptidyl peptidase-iv inhibitor” (priority 2003, published 2006)

Experiments:
[1] = Solid-state stability and interconversion of the crystalline forms; format: physicochemical; conditions: for temperature range in which the polymorph is the stable form (enantiotropic transition temperature): Form I / Form III enantiotropic pair, transition about 34° C.
Solubility in water = format: physicochemical

SMILES | temperature range in which the polymorph is the stable form (enantiotropic transition temperature) [1] | time for conversion to anhydrate Form I or Form III or mixtures thereof ([1]; at about 45° C., form is metastable) | solubility (Solubility in water)
N[C@@H](CC(=O)N1CCn2c(nnc2C(F)(F)F)C1)Cc1cc(F)c(F)cc1F [anhydrate Form III] | below 34 °C |  | 
N[C@@H](CC(=O)N1CCn2c(nnc2C(F)(F)F)C1)Cc1cc(F)c(F)cc1F [desolvated anhydrate Form II] |  | about 2 h | 
N[C@@H](CC(=O)N1CCn2c(nnc2C(F)(F)F)C1)Cc1cc(F)c(F)cc1F [anhydrate Form I] | above 34 °C |  | > 120 mg/mL
